These results are taken from publication PMC5652740, “Inhibition of HIV-1 infection in humanized mice and metabolic stability of protein phosphatase-1-targeting small molecule 1E7-03” (Oncotarget, 2017).

For experiment [1], the system named is PP1 regulatory subunit Sds22. In words: Label free quantitative proteomics of HIV-1 infected CEM T cells. The class given is cell-based. The following applies: 10 μM, SIEVE quantification. As to the method:
CEM T cells were infected with VSVG-pseudotyped pNL4-3.Luc.R-E-virus (HIV-1-LUC-G) and cultured in 100 mm culture plates (1.25 × 10^6 cells/ml) containing 10 ml of supplemented RPMI media at 37°C and 5% CO2. The cells were treated with 10 μM of 1E7-03 or vehicle (DMSO) and incubated overnight. Cells were collected and washed three times with PBS. To obtain cell lysates, the cells were suspended in 1 ml cold whole cell lysis buffer (50 mM Tris-HCl, pH 7.5, 0.5 M NaCl, 1% NP-40, 0.1% SDS) with protease and phosphatase inhibitors (P044-1ML, Sigma Aldrich). The cytosolic protein fraction was isolated by centrifugation at 13,000xg for 30 min at 4 °C to remove cellular debris. […]
Tryptic peptides were purified by Pierce™ Graphite Spin Columns following manufacturer's instructions, resuspended in water with 0.1% formic acid (v/v) and analyzed by an LTQ Orbitrap XL mass spectrometer (Thermo Fisher Scientific) coupled to a Prominence Nano LC (Shimadzu) using the Xcalibur version 2.7.0 (Thermo Scientific). […]
LC-MS/MS raw data were searched by Proteome Discoverer 1.4 using Sequest search engine (Thermo Fisher Scientific), against the Uniprot Human database (6/10/2016, 135431 sequences) at a false discovery cut off ≤1%. […] The label-free quantification of peptides eluting between 10 and 80 min was performed with SIEVE 2.1 software (Thermo Scientific). […]

For experiment [2], the system named is HIV-1 integration. In words: HIV-1 integration, Alu-Gag real-time PCR in CEM T cells. The class given is cell-based. The settings on record: 10 μM, DNA 6 hrs post infection, in words. As to the method: To assay HIV-1 integration, CEM T cells were infected with HIV-1-LUC-G virus and treated with 10 μM 1E7-03 or DMSO. Total DNA was extracted from cells using lysis buffer (10 mM Tris-HCl pH 8.0, 10 mM EDTA, 5 mM NaCl, 200 μg/ml proteinase K). The cells were lysed for 20-30 min at room temperature and proteinase K was inactivated by heating to 95°C for 5 min. For the real-time PCR analysis, 100 ng DNA was amplified using Roche Light Cycler 480 (Roche Diagnostics) and SYBR Green1 Master mix (Roche Diagnostics). PCR was carried with initial preincubation for 5 min at 45°C and then for 3 in at 95°C followed by 45 cycles of denaturation at 95°C for 15 sec, annealing and extension at 60°C for 45 sec, and final extension at 72°C for 10 sec. Integrated HIV-1 DNA was amplified using the following primers: Alu forward 5'-[…]-3', and Gag reverse 5'-[…]-3'.
(In general: Real-time PCR tracks product formation cycle by cycle.)

On to `CCNC(=O)NC(=O)C(C)OC(=O)c1c2c(nc3ccccc13)/C(=C/c1ccc(OC)c(OC)c1)CC2` (stereo not drawn) [1E7-03], for which, in experiment [1], the “Sds22 Ratio 1E7-03/Control” value was determined as 0.804 and the “α-tubulin Ratio 1E7-03/Control” value came out at 0.936. Besides, in experiment [2], the “effect on HIV-1 integration” value is on record as “did not show any significant effect”.
